Source: paper PMC2748841 (Nature, 2009)
Entries after “also recorded” stand apart in the source; their conditions may differ.

What was measured:
PrP-Fc = assay type: binding, mouse
APLP2 = APLP2 (Homo sapiens, UniProt Q06481); assay type: binding
PrP Δ52–91 = assay type: binding, mouse
APP = APP (Homo sapiens, UniProt P05067); assay type: binding
control Fc protein = assay type: binding, human
[1] = system: NR-2B containing receptors; assay type: cell-based
Doppel = Doppel (Homo sapiens, UniProt Q9UKY0); assay type: binding
PrP^C = PrP^C (Mus musculus, UniProt P04925); assay type: binding
[2] = system: hippocampal long-term potentiation; settings: cited from earlier work
PrP Δ32–121 = PrP Δ32–121 (Mus musculus, UniProt P04925, DEL32-121); assay type: binding
[3] = system: receptor for advanced glycation endproducts (RAGE); assay type: binding
PrP Δ70–105 = assay type: binding, mouse
hippocampal neurons = assay type: binding, rat
PrP Δ95–105 = assay type: binding, mouse
[4] = system: Schaffer collateral LTP, wild-type hippocampal slices; design: species or system mouse
[5] = system: Schaffer collateral LTP, Prnp −/− hippocampal slices; design: species or system mouse
[6] = system: hippocampal cultures from Prnp −/− mice; assay type: binding, mouse
[7] = system: NR-2D containing receptors; assay type: cell-based
Sprn = biological target: T1, Sprn (Mus musculus, UniProt Q8BWU1); assay type: binding
T1 sequence (Q8BWU1 whole entry, looked up): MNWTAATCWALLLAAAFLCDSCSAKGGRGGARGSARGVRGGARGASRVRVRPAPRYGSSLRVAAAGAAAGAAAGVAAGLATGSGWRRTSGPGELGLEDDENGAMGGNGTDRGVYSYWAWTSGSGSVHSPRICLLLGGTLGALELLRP

PrP Δ32–106 = PrP Δ32–106 (Mus musculus, UniProt P04925, DEL32-106); assay type: binding
[8] = assay type: physicochemical; settings: pH 7

Sequence of APLP2 (Q06481 32-763): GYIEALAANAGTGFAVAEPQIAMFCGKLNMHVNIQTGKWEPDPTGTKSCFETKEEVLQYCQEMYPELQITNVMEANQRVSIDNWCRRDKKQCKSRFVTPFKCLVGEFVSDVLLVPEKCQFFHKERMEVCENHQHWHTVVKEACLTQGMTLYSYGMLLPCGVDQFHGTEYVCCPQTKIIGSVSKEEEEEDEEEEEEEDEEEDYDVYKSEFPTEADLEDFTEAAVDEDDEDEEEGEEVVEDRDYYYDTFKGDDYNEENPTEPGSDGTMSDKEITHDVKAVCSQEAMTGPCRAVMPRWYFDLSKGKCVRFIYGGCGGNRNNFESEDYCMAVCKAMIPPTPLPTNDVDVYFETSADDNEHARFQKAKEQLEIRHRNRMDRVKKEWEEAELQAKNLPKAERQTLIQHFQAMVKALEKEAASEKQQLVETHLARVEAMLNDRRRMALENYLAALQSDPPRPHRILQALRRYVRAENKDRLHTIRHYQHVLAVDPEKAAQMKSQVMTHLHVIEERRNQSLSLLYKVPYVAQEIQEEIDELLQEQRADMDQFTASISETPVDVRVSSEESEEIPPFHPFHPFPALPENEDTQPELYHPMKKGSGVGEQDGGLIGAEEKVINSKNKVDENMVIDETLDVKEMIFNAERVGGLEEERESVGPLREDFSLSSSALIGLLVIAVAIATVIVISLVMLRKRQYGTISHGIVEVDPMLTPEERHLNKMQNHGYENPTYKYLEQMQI

## Aβ42
PrP-Fc
  retention by PrP-Fc (in words): retained Aβ42 peptide through a direct physical interaction
APLP2
  binding to APLP2 (in words): neither of these proteins binds Aβ42
PrP Δ52–91
  binding to PrP Δ52–91 (in words): exhibits significant Aβ42 binding
APP
  binding to APP (in words): neither of these proteins binds Aβ42
Control Fc protein
  retention by control Fc: retained neither freshly prepared nor oligomeric preparations of Aβ42

## Aβ42-oligomer
[1]
  effect on NR2B-containing NMDA receptor currents: insensitive to Aβ42-oligomers
Doppel
  affinity for Doppel (in words): neither exhibited affinity for oligomeric Aβ42
PrP^C
  effect of copper on binding to PrP: does not alter Aβ42-oligomer binding
PrP^C; read-out: KD, PrP
  Kd: 92 nM
[2]
  effect on Schaffer collateral LTP: suppress long-term potentiation (LTP)
PrP Δ32–121
  binding to PrP Δ32–121 (in words): abrogates binding
[3]
  binding to RAGE (in words): less Aβ42-oligomer binding signal than did PrP, APLP1 or TMEM30B
PrP Δ70–105
  binding to PrP Δ70–105 (in words): no further reduction
Hippocampal neurons
  binding to hippocampal neurons: saturable; also recorded: binds to 21 DIV hippocampal neurons
  developmental dependence of neuronal binding: minimal binding to neurons immediately after dissociation from E18 hippocampus; also recorded: Not until 15–20 days have elapsed in vitro does Aβ42-oligomer binding to neurons become robust
  localization of binding on neurons: most concentrated at post-synaptic densities; also recorded: localization of PrP immunoreactivity and Aβ42-oligomer binding overlap extensively
Hippocampal neurons; read-out: apparent KD
  Kd: 50 to 100 nM
PrP Δ95–105
  reduction of binding, PrP Δ95–105: 80%
[4]
  effect on LTP, wild-type slices: reduce LTP in hippocampal slices from wild-type mice
[5]
  effect on LTP, Prnp −/− slices: no significant inhibition of LTP
[6]
  reduction of punctate binding in Prnp −/− cultures: 50%
[7]
  effect on NR2D-containing NMDA receptor currents: insensitive to Aβ42-oligomers
Sprn
  affinity for Sprn (in words): neither exhibited affinity for oligomeric Aβ42
PrP Δ32–106
  binding to PrP Δ32–106 (in words): no Aβ42-oligomer affinity

## biotin-Aβ42-oligomer: Aβ42 with biotin moiety attached by 6-carbon linker to amino terminus, oligomerized
Hippocampal neurons
  localization of binding on neurons: very low levels in astroglial cells
[8]
  particle diameter: 5–6 nm

## freshly prepared biotin-Aβ42: freshly prepared Aβ42 with biotin attached by 6-carbon linker to amino terminus
Hippocampal neurons
  binding to hippocampal neurons: does not
